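Test compounds were applied to cells in 96-well plates for 48 hours at 5 doses. Here, GI50 denotes the concentration required for 50% inhibition of growth. TGI marks complete inhibition of growth.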
How the values were obtained:
Test in all cases: NCI tumour cell line growth inhibition, 48 h
A549 NSCLC = test system: A549 NSCLC
BT-549 breast = test system: BT-549 breast
CAKI-1 renal = test system: CAKI-1 renal
COLO 205 colon = test system: COLO 205 colon
HCC-2998 colon = test system: HCC-2998 colon
HOP-92 NSCLC = test system: HOP-92 NSCLC
MDA-MB-231 breast = test system: MDA-MB-231 breast
NCI-H522 lung = test system: NCI-H522 lung
OVCAR-3 ovarian = test system: OVCAR-3 ovarian
PC-3 prostate = test system: PC-3 prostate
SF-268 CNS = test system: SF-268 CNS
SF-539 CNS = test system: SF-539 CNS
SK-MEL-5 melanoma = test system: SK-MEL-5 melanoma
SN12C renal = test system: SN12C renal
SW-620 colon = test system: SW-620 colon
U251 CNS = test system: U251 CNS
UACC-62 melanoma = test system: UACC-62 melanoma
UO-31 renal = test system: UO-31 renal

Compound | TGI (A549 NSCLC) [µM] | TGI (BT-549 breast) [µM] | TGI (CAKI-1 renal) [µM] | TGI (COLO 205 colon) [µM] | TGI (HCC-2998 colon) [µM] | TGI (HOP-92 NSCLC) [µM] | TGI (MDA-MB-231 breast) [µM] | TGI (NCI-H522 lung) [µM] | TGI (OVCAR-3 ovarian) [µM] | TGI (PC-3 prostate) [µM] | TGI (SF-268 CNS) [µM] | TGI (SF-539 CNS) [µM] | TGI (SK-MEL-5 melanoma) [µM] | TGI (SN12C renal) [µM] | TGI (SW-620 colon) [µM] | TGI (U251 CNS) [µM] | TGI (UACC-62 melanoma) [µM] | TGI (UO-31 renal) [µM] | GI50 (MDA-MB-231 breast) [µM] | GI50 (UACC-62 melanoma) [µM]
CC(NC(=O)OCc1ccccc1)NC(=O)OC(C)(C)C (centres undefined) | > 100 | > 100 | > 100 | > 100 | > 100 | > 100 | > 100 | > 100 | > 100 | > 100 | > 100 | > 100 | > 100 | > 100 | > 100 | > 100 | > 100 | > 100 |  | 
CC(C)OC(=O)c1ccc(NCC2=CC(=O)C=CC2=O)cc1 | > 100 | 26.1 | 11.1 | 13.7 | 38.2 | 8.83 | 25 | 3.27 | 21.6 | 25.7 | 26.1 | 22.4 | 32.2 | 26.1 | 26.5 | 31.3 | 31.4 | 21.8 |  | 
COc1nn(Cc2ccccn2)c2ccc([N+](=O)[O-])cc12 | > 100 | > 100 | > 100 | > 100 | > 100 | 84.2 | > 100 | > 100 | > 100 | > 100 | > 100 | > 100 | > 100 | > 100 | > 100 | > 100 | > 100 | > 100 |  | 
O=C(Nc1ccc(Cl)cc1)c1cc(S(=O)(=O)Nc2n[nH]c(Nc3ccc4ccccc4c3)n2)c(SSc2cc(Cl)c(C(=O)Nc3ccc(Cl)cc3)cc2S(=O)(=O)Nc2n[nH]c(Nc3ccc4ccccc4c3)n2)cc1Cl | > 100 | 61.1 | 38 | 38.8 | 43.7 | 59.8 | 46.5 | 50.8 | 59.5 | 69.1 | > 100 | 60.5 | 40.6 | 59.2 | 49.8 | 58.6 | 51.7 | 65.3 |  | 
CCCN(CCc1ccc(-c2ccccc2)cc1)CCc1ccc2n[nH]nc2c1 | 30 | 22.2 | 25.5 | 9.07 | 19.7 | 15.2 | 28.1 | 25.9 | 25.8 | 22.1 | 48.7 | 24 | 15.8 | 27.4 | 36.3 | 37.6 | 24 | 22.4 |  | 
NC(=O)NC1NC(=O)NC1=O (centres undefined) | > 100 | > 100 | > 100 | > 100 | > 100 | > 100 | > 100 | > 100 | > 100 | > 100 | > 100 | > 100 | > 100 | > 100 | > 100 | > 100 | > 100 | > 100 |  | 
CN(C)CCn1c(=O)c2ccc(NCCNCCO)c3c(=O)c4ccccc4n(c1=O)c23 | 3.16 | 4.81 | 0.186 | 0.836 | 2.34 | 0.604 | 0.852 | 0.34 | 5.66 | 2.09 | 0.977 | 0.593 | 0.813 | 0.509 | > 30.7 | 3.07 | 0.88 | 0.842 |  | 
Cn1c(-c2cccs2)cc(-c2cccs2)c1-c1cccs1 | > 100 | > 100 | > 100 | 34.1 | > 100 | > 100 | > 100 | > 93.5 | > 100 | > 100 | > 100 | > 100 | > 100 | > 100 | > 100 | > 100 | > 100 | > 100 |  | 
CCN(CCCl)c1cc(CN(C)C)cc(NC(=O)c2ccc(C(=O)Nc3cc(CN(C)C)cc(N(CC)CCCl)c3)cc2)c1 | 3.89 | 0.683 | 1.74 | 0.551 | 0.311 | 0.662 | 1.36 | 0.234 | 2.66 | 2.4 | 0.749 | 0.815 | 0.328 | 1.53 | 1.92 | 1.64 | 0.273 | 11.6 |  | 
CC12Nc3c(Cl)cc(Cl)cc3N1C(=O)c1ccccc12 (centres undefined) | > 100 | > 100 | > 100 | > 100 | > 100 | 82.1 | > 100 | > 100 | > 100 | > 100 | > 100 | > 100 | > 100 | > 100 | > 100 | > 100 | > 100 | > 100 |  | 
COc1cc2c(cc1C)NC(=O)/C2=C/c1cccnc1 | > 55.3 | > 82 | 30.3 | > 47.9 | 8.28 | 41.9 | 27.5 | 33.4 | 33.3 | > 64.6 | 41 | > 84.7 | 25.3 | 29.5 | 53.1 | > 52.5 | 25.9 | 26.2 | 9.27 | 10.1
O=C(CSc1ncccn1)N/N=C/c1ccccc1OCc1ccccc1 | > 100 | 70.4 | > 100 | 38.8 | 95.1 | 78.3 | 95.3 | 79.2 | 33.9 | > 100 | > 100 | 46 | 28.4 | 72.6 | > 100 | 81.7 | 50.4 | > 100 |  | 
O=C1c2c(Br)sc(Br)c2C(NC(=O)C(F)(F)F)C1O (centres undefined) | 58.5 | 34.9 | 31.4 | 33.4 | 32.6 | 35.9 | 38.5 | 27.3 | 43.7 | 74.9 | > 100 | 32.1 | 36 | 34.1 | 40 | 37.4 | 40.8 | 56.7 |  | 
COc1ccc(CNc2ccn(C3OC(CO)C(O)C3O)c(=O)n2)cc1 (centres undefined) | > 100 | > 100 | > 100 | > 100 | > 100 | > 100 | > 100 | > 100 | > 100 | > 100 | > 100 | > 100 | > 100 | > 100 | > 100 | > 100 | > 100 | > 100 |  | 
